# Results published in US6737383B1, “Herbicidal oxadiazolidines” (priority 1999, dated 2004).
# Key:
# bamyardgrass = experiment: Test B flood test barnyardgrass; assay type: in vivo, Echinochloa crus-galli
# Method in brief: (§1)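 Plants were grown to the 2-leaf stage before treatment with test chemical, then held in a greenhouse for twelve to sixteen days. Injury was visually rated against untreated controls on a 0–10 scale, where 0 is no effect and 10 is complete control.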
# corn = experiment: Test B pre/postemergence corn; assay type: in vivo, Zea mays
# Method in brief: (§2)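 Response is a visual 0-to-10 score relative to untreated plants, where 0 means no effect and 10 means complete control, taken twelve to sixteen days after application. Treatments went onto soil at planting and onto foliage of 1- to 4-leaf plants, using a surfactant-containing non-phytotoxic solvent.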
# purple nutsedge = experiment: Test B pre/postemergence purple nutsedge; assay type: in vivo, Cyperus rotundus
# Method in brief: as §2
# pigweed = experiment: Test B pre/postemergence pigweed; assay type: in vivo, Amaranthus retroflexus
# Method in brief: as §2
# rice = experiment: Test B flood test rice; assay type: in vivo, Oryza sativa
# Method in brief: as §1
# sugar beet = experiment: Test B pre/postemergence sugar beet; assay type: in vivo, Beta vulgaris
# Method in brief: as §2
# smallflower flatsedge = experiment: Test B flood test smallflower flatsedge; assay type: in vivo, Cyperus difformis
# Method in brief: as §1
# crabgrass = experiment: Test B pre/postemergence crabgrass; assay type: in vivo, Digitaria sanguinalis
# Method in brief: as §2
# soybean = experiment: Test B pre/postemergence soybean; assay type: in vivo, Glycine max
# Method in brief: as §2
# giant foxtail = experiment: Test B pre/postemergence giant foxtail; assay type: in vivo, Setaria faberii
# Method in brief: as §2
# surinam grass = experiment: Test B pre/postemergence surinam grass; assay type: in vivo, Brachiaria decumbens
# Method in brief: as §2
# blackgrass = experiment: Test B pre/postemergence blackgrass; assay type: in vivo, Alopecurus myosuroides
# Method in brief: as §2
# cocklebur = experiment: Test B pre/postemergence cocklebur; assay type: in vivo, Xanthium strumarium
# Method in brief: as §2
# wild oat = experiment: Test B pre/postemergence wild oat; assay type: in vivo, Avena fatua
# Method in brief: as §2
# velvetleaf = experiment: Test B pre/postemergence velvetleaf; assay type: in vivo, Abutilon theophrasti
# Method in brief: as §2
# bedstraw = experiment: Test B pre/postemergence bedstraw; assay type: in vivo, Galium aparine
# Method in brief: as §2
# [1] = Postemergence, Rate 62 g/ha, scale 0 to 10, 0 is no effect, 10 is complete control
# [2] = Rate 125 g/ha, Postemergence section (flood test species), scale 0 to 10, 0 no effect, 10 complete control
# [3] = Rate 500 g/ha, listed under Postemergence (flood test species), scale 0 to 10, 0 no effect, 10 complete control
# [4] = flood test, listed under Postemergence, Rate 250 g/ha, scale 0 to 10, 0 no effect, 10 complete control
# [5] = Postemergence, Rate 250 g/ha, scale 0 to 10, 0 no effect, 10 complete control
# [6] = Preemergence, Rate 62 g/ha, scale 0 to 10 (0 no effect, 10 complete control)
# [7] = Preemergence, Rate 125 g/ha, scale 0 to 10 (0 no effect, 10 complete control)
# [8] = Preemergence, Rate 250 g/ha, scale of 0 to 10 where 0 is no effect and 10 is complete control
# [9] = Preemergence, Rate 500 g/ha, scale 0 (no effect) to 10 (complete control)
# [10] = Rate 125 g/ha, Postemergence, scale 0 to 10, 0 no effect, 10 complete control
# [11] = Rate 500 g/ha, Postemergence, scale 0 to 10, 0 no effect, 10 complete control
smiles,measurement,setting,value
COc1cccc(C)c1-n1c(=O)on(C(=O)N(c2ccc(F)cc2F)C(C)C)c1=O [Compound 74],Barnyardgrass plant response rating,bamyardgrass; [1],0
same,Barnyardgrass plant response rating,bamyardgrass; [2],0
same,Barnyardgrass plant response rating,bamyardgrass; [3],0
same,Barnyardgrass plant response rating,bamyardgrass; [4],0
same,Corn plant response rating,corn; [1],0
same,Corn plant response rating,corn; [5],0
same,Corn plant response rating,corn; [6],0
same,"Plant response rating, Corn",corn; [7],0
same,"Plant response rating, Corn",corn; [8],0
same,Corn plant response rating,corn; [9],0
same,Corn plant response rating,corn; [10],0
same,Corn plant response rating,corn; [11],0
same,Nutsedge plant response rating,purple nutsedge; [1],0
same,Nutsedge plant response rating,purple nutsedge; [5],0
same,Nutsedge plant response rating,purple nutsedge; [6],0
same,"Plant response rating, Nutsedge",purple nutsedge; [7],0
same,"Plant response rating, Nutsedge",purple nutsedge; [8],0
same,Nutsedge plant response rating,purple nutsedge; [9],0
same,Nutsedge plant response rating,purple nutsedge; [10],0
same,Nutsedge plant response rating,purple nutsedge; [11],0
same,Redroot pigweed plant response rating,pigweed; [1],0
same,Redroot pigweed plant response rating,pigweed; [5],0
same,Redroot pigweed plant response rating,pigweed; [6],0
same,"Plant response rating, Redroot pigweed",pigweed; [7],0
same,"Plant response rating, Redroot pigweed",pigweed; [8],0
same,Redroot pigweed plant response rating,pigweed; [9],3
same,Redroot pigweed plant response rating,pigweed; [10],0
same,Redroot pigweed plant response rating,pigweed; [11],0
same,Rice plant response rating,rice; [1],0
same,Rice plant response rating,rice; [2],0
same,Rice plant response rating,rice; [3],0
same,Rice plant response rating,rice; [4],0
same,Sugarbeets plant response rating,sugar beet; [1],0
same,Sugarbeets plant response rating,sugar beet; [5],0
same,Sugarbeets plant response rating,sugar beet; [6],0
same,"Plant response rating, Sugarbeets",sugar beet; [7],0
same,"Plant response rating, Sugarbeets",sugar beet; [8],2
same,Sugarbeets plant response rating,sugar beet; [9],4
same,Sugarbeets plant response rating,sugar beet; [10],0
same,Sugarbeets plant response rating,sugar beet; [11],0
same,S. Flatsedge plant response rating,smallflower flatsedge; [1],0
same,S. Flatsedge plant response rating,smallflower flatsedge; [2],0
same,S. Flatsedge plant response rating,smallflower flatsedge; [3],0
same,S. Flatsedge plant response rating,smallflower flatsedge; [4],0
same,Crabgrass plant response rating,crabgrass; [1],0
same,Crabgrass plant response rating,crabgrass; [5],4
same,Crabgrass plant response rating,crabgrass; [6],2
same,"Plant response rating, Crabgrass",crabgrass; [7],2
same,"Plant response rating, Crabgrass",crabgrass; [8],5
same,Crabgrass plant response rating,crabgrass; [9],8
same,Crabgrass plant response rating,crabgrass; [10],2
same,Crabgrass plant response rating,crabgrass; [11],7
same,Soybean plant response rating,soybean; [1],0
same,Soybean plant response rating,soybean; [5],1
same,Soybean plant response rating,soybean; [6],0
same,"Plant response rating, Soybean",soybean; [7],0
same,"Plant response rating, Soybean",soybean; [8],0
same,Soybean plant response rating,soybean; [9],0
same,Soybean plant response rating,soybean; [11],1
same,Giant foxtail plant response rating,giant foxtail; [1],0
same,Giant foxtail plant response rating,giant foxtail; [6],3
same,"Plant response rating, Giant foxtail",giant foxtail; [7],7
same,"Plant response rating, Giant foxtail",giant foxtail; [8],8
same,Giant foxtail plant response rating,giant foxtail; [9],10
same,Giant foxtail plant response rating,giant foxtail; [10],0
same,Giant foxtail plant response rating,giant foxtail; [11],2
same,B. signalgrass plant response rating,surinam grass; [1],0
same,B. signalgrass plant response rating,surinam grass; [5],0
same,B. signalgrass plant response rating,surinam grass; [6],0
same,"Plant response rating, B. signalgrass",surinam grass; [7],0
same,"Plant response rating, B. signalgrass",surinam grass; [8],0
same,B. signalgrass plant response rating,surinam grass; [9],0
same,B. signalgrass plant response rating,surinam grass; [10],0
same,B. signalgrass plant response rating,"surinam grass; Rate 500 g/ha, Postemergence, scale of 0 to 10 where 0 is no effect and 10 is complete control",2
same,Blackgrass plant response rating,blackgrass; [1],0
same,Blackgrass plant response rating,blackgrass; [5],0
same,Blackgrass plant response rating,blackgrass; [6],0
same,"Plant response rating, Blackgrass",blackgrass; [7],0
same,"Plant response rating, Blackgrass",blackgrass; [8],0
same,Blackgrass plant response rating,blackgrass; [9],0
same,Blackgrass plant response rating,blackgrass; [10],0
same,Blackgrass plant response rating,blackgrass; [11],3
same,Cocklebur plant response rating,cocklebur; [1],0
same,Cocklebur plant response rating,cocklebur; [5],0
same,Cocklebur plant response rating,cocklebur; [6],0
same,"Plant response rating, Cocklebur",cocklebur; [7],0
same,"Plant response rating, Cocklebur",cocklebur; [8],0
same,Cocklebur plant response rating,cocklebur; [9],0
same,Cocklebur plant response rating,cocklebur; [10],0
same,Cocklebur plant response rating,cocklebur; [11],4
same,Wild oats plant response rating,wild oat; [1],0
same,Wild oats plant response rating,wild oat; [5],0
same,Wild oats plant response rating,wild oat; [6],0
same,"Plant response rating, Wild oats",wild oat; [7],0
same,"Plant response rating, Wild oats",wild oat; [8],0
same,Wild oats plant response rating,wild oat; [9],0
same,Wild oats plant response rating,wild oat; [10],0
same,Wild oats plant response rating,wild oat; [11],2
same,Velvetleaf plant response rating,velvetleaf; [1],2
same,Velvetleaf plant response rating,velvetleaf; [5],4
same,Velvetleaf plant response rating,velvetleaf; [6],0
same,"Plant response rating, Velvetleaf",velvetleaf; [7],0
same,"Plant response rating, Velvetleaf",velvetleaf; [8],0
same,Velvetleaf plant response rating,velvetleaf; [9],0
same,Velvetleaf plant response rating,velvetleaf; [10],4
same,Velvetleaf plant response rating,velvetleaf; [11],4
same,Bedstraw plant response rating,bedstraw; [1],0
same,Bedstraw plant response rating,bedstraw; [5],5
same,Bedstraw plant response rating,bedstraw; [6],0
same,"Plant response rating, Bedstraw",bedstraw; [7],0
same,"Plant response rating, Bedstraw",bedstraw; [8],0
same,Bedstraw plant response rating,bedstraw; [9],0
same,Bedstraw plant response rating,bedstraw; [10],0
same,Bedstraw plant response rating,bedstraw; [11],8
